Residue numbers refer to the chain shown, from its start. Ends that are not written are not given here.
Key:
[1] = target: T1, GALR3 single mutant Y^103F (Homo sapiens, UniProt O60755, Y103F); test: SRE-luc luciferase assay, GALR3 Y103F; type: cell-based; conditions: GALR3 Y^103F; SRE-luc in HEK293 Gqi cells, ligand 6 h; mean ± S.E.; SEM
T1 construct: expressed in transfected cells; host or cells: HEK293 cells stably expressing Gqi
T1 sequence (O60755 1-368 Y103F): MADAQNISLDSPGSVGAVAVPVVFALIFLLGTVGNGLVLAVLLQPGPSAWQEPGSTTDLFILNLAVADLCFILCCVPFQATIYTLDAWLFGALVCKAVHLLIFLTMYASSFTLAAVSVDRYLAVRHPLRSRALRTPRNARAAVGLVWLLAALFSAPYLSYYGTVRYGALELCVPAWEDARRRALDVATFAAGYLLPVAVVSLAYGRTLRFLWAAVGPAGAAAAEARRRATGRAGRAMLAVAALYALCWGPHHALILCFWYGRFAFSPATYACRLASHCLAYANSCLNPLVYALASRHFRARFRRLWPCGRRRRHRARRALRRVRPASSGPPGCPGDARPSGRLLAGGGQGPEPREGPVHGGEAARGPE
From the text: (§1) For domain swapping between GALR2 and GALR3, individual cDNA fragments of interest were amplified by polymerase chain reaction (PCR) with Pfu polymerase (ELPIS Biotech, Daejeon, Korea) and two specific primers, one corresponding to the 5' or 3' end of the GALR2 or GALR3 cDNA and the other to the region of overlap between the two receptors. The two resulting fragments, one from GALR2 and the other from GALR3, were subjected to a second round of PCR to generate the chimeric cDNAs. To construct single, double-, triple-, pentuple-, hextuple-, and septuple-mutant receptors, amino acids of GALR3 were substituted for the amino acids at the corresponding positions in GALR2 using PCR-based site-directed mutagenesis. All of the chimeric constructs were cloned into the pcDNA3 expression vector at HindⅢ and XbaⅠ sites. The DNA sequences of the chimeras were verified by automatic sequencing. HEK293 cells stably expressing the Gqi construct, which allows induction of Gq-dependent signaling pathways upon activation of a Gi-coupled receptor [14, 30], were maintained in Dulbecco's Modified Eagle's Medium (DMEM) in the presence of 10% fetal bovine serum and 1% penicillin and streptomycin. For all transfections, 200 ng DNA (100 ng receptor and 100 ng SRE-luc) mixed with lipofectamine 2000 was applied to 60–80% confluent cells on a multi-well plate according to the manufacturer's instructions (Invitrogen, Carlsbad, CA). For luciferase assays, HEK293 Gqi cells were seeded on 48-well plates at a density of 2.5 × 10^4 cells/well one day before transfection. […] The luciferase activity in 50 μl cell extract was determined using a luciferase assay system according to the standard protocol for the Synergy 2 Multi-Mode Microplate Reader (BioTek, Winooski, VT, USA). […] The concentrations of agonists that induced half-maximal stimulation (EC50) were calculated using the GraphPad PRISM5 software (GraphPad software, Inc., San Diego, CA). […]

[2] = target: T2, GALR3 single mutant L^100F (Homo sapiens, UniProt O60755, L100F); test: SRE-luc luciferase assay, GALR3 L100F; type: cell-based; conditions: GALR3 L^100F; SRE-luc in HEK293 Gqi cells, ligand 6 h; mean ± S.E.; SEM
T2 construct: expressed in transfected cells; host or cells: HEK293 cells stably expressing Gqi
T2 sequence (O60755 1-368 L100F): T1 sequence (O60755 1-368 Y103F) with L100F, F103Y
From the text: as §1

| EC50 [1] [nM] | EC50 [2] [nM] | Molecule |
| --- | --- | --- |
| 676 ± 127 | 288 ± 84.2 | NWTPNAMLYLKGAQ-NH2 [N^5-SPX] |
| 32.4 ± 10.5 | 66.1 ± 13.6 | CSCC[C@H](NC(=O)[C@H](C)NC(=O)[C@H](CCC(N)=O)NC(=O)[C@@H]1CCCN1C(=O)[C@@H](NC(=O)[C@H](Cc1c[nH]c2ccccc12)NC(=O)[C@@H](N)CC(N)=O)[C@@H](C)O)C(=O)N[C@@H](CC(C)C)C(=O)N[C@@H](Cc1ccc(O)cc1)C(=O)N[C@@H](CC(C)C)C(=O)N[C@@H](CCCCN)C(=O)NCC(=O)N[C@@H](C)C(=O)N[C@@H](CCC(N)=O)C(N)=O [SPX, reference compound] |
| 302 ± 72.9 | 269 ± 45.3 | NWTPQAALYLKGAQ-NH2 [A^7-SPX] |

— PMC7108740, “Exploring the molecular structures that confer ligand selectivity for galanin type II and III receptors” (PLoS ONE, 2020)
